Data taken from patent US20080009478A1, “Benzazepine Derivatives and Methods of Prophylaxis or Treatment of 5Ht2c Receptor Associated Diseases” (Arena Pharmaceuticals, Inc., priority 2003, published 2008).
Where a name gives a salt, the structure may show the parent alone.

Legend:
[1] = biological target: T1, human 5HT2C receptor (Homo sapiens, UniProt P28335); experiment: Intracellular IP3 Accumulation Assay; type: cell-based; conditions: HEK293 cells transfected with human 5HT2C receptor; averages of at least two trials; read-out: 5-HT2C (IC50) IP Accumulation Assay
T1 construct: expressed in transfected cells; host or cells: HEK293
T1 sequence (P28335 33-458): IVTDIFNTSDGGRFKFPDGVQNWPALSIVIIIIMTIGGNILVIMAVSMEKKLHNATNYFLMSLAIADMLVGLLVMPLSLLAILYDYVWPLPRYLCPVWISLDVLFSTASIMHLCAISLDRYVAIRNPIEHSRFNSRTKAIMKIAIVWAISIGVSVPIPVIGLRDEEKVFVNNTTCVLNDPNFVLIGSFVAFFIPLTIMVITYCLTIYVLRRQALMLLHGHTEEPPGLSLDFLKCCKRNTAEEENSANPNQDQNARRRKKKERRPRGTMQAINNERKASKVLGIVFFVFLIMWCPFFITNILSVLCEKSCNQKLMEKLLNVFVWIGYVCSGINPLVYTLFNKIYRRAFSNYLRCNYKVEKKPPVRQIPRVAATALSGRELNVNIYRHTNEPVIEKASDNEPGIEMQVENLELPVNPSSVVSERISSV
Procedure: Intracellular IP3 Accumulation Assay
HEK293 cells were transfected in 15 cm sterile dishes with or without (control) 16 ug of human 5HT2C receptor cDNA [Saltzman, A. G., et al. Biochem. Biophys. Res. Commun. 181, 1469-1478 (1991)] using 25 ul of lipofectamine. Cells were then incubated for 3-4 hours at 37° C./5% CO2 and then transfection media was removed and replaced with 100 μL of DMEM. Cells were then plated onto […] sterile dishes. The next day cells were plated into 96 well PDL microtiter plates at a density of 55K/0.2 ml. Six hours latter, media was exchanged with [^3H]inositol (0.25 μCi/well) in inositol free DMEM and plates were incubated at 37° C./5% CO2 overnight. The next day, wells were aspirated and 200 μl of DMEM containing test compound, 10 μM pargyline, and 10 mM LiCl was added to appropriate wells. Plates were then incubated at 37° C./5% CO2 for three hours followed aspiration and by addition of fresh ice cold stop solution (1M KOH, 19 mM Na-borate, 3.8 mM EDTA) to each well. Plates were kept on ice for 5-10 min and the wells were neutralized by addition of 200 μL of fresh ice cold neutralization solution (7.5% HCl). Plates were then frozen until further processing is desired. The lysate was then transferred into 1.5 mL Eppendorf tubes and 1 mL of chloroform/methanol (1:2) was added/tube. […]

[2] = tested on: serotonin 5HT2A receptors; conditions: 3T3 fibroblasts expressing 5HT2A; cited from earlier work
[3] = tested on: amyloid precursor protein (APPs); conditions: guinea pigs, in vivo, repeat administration; cited from earlier work

COc1cc2c(cc1Cc1ccccc1)C(C)CNCC2 (racemic) [Example 14, (R,S)-8-Benzyl-7-methoxy-1-methyl-2,3,4,5-tetrahydro-1H-benzo[d]azepine hydrochloride]
IC50 [1]: 7 nM

NCCc1c[nH]c2ccc(O)cc12 [Example 5-HT, 5-hydroxytryptamine]
Maximal stimulation of APPs secretion [2]: about 4 fold

C[C@@H]1CNCCc2cc(Cc3ccccc3)c(Cl)cc21 [Example 13, (S)-7-Benzyl-8-chloro-1-methyl-2,3,4,5-tetrahydro-1H-benzo[d]azepine hydrochloride]
IC50 [1]: 30 nM

C[C@H](N)Cc1cccc(C(F)(F)F)c1 [dexnorfenfluramine]
amyloid precursor protein (APPs) secretion [3]: stimulated | levels of Aβ production [3]: reducing
